Experimental data as given in US20170152245A1 (National Taiwan University, priority 2015, published 2017).

What was measured:
[1] = system: human platelet-rich plasma; test: U46619-induced platelet aggregation in human platelet-rich plasma; type: cell-based; conditions: U46619 1 μM
Experimental: Human platelet suspension (PS) was prepared according to the method described previously. Briefly, blood sample, freshly obtained from healthy volunteers who had taken no medications during the preceding 2 weeks, was treated with acid citrate/dextrose (ACD) in a volume ratio of 9:1. After centrifugation at 120 g, 25° C. for 9 min, platelet-rich plasma was transferred into another plastic tube and incubated with heparin (6.4 U/ml) as well as prostaglandin E1 (1 μM). Platelets were spun down by centrifugation at 500 g, 25° C. for 8 min and subsequently washed two times with Tyrode solution (NaH2PO4 0.4 mM; NaCl 136.9 mM; KCl […]; NaHCO3 11.9 mM; CaCl2 2 mM; MgCl2 2.1 mM; glucose 11.1 mM; BSA 3.5 mg/ml; pH 7.35-7.4). The washed platelets were finally suspended in Tyrode's solution and the platelet count was adjusted to 3.75×10^8 platelets/ml. For platelet-rich plasma (PRP) preparation, whole blood was anticoagulated with 1/10 vol of sodium citrate (3.8%, w/v) and centrifuged at 150 g, 25° C. for 9 min.
Platelet aggregation was measured turbidimetrically with a Lumi-aggregometer (Payton Scientific) at 37° C. under stirring condition (900 rpm). […] The extent of platelet aggregation was determined by recording the increase of light transmission relative to that of control (maximal aggregation, as 100%) for 6 min after the addition of inducer. […]

[2] = system: mouse PRP; test: Ex vivo mouse PRP aggregation caused by U46619; type: in vivo, mice; conditions: 10 μg/g i.v.; U46619 0.125 μM; compared to nstpbp5185
Experimental: Mice were i.v. injected with vehicle, nstpbp5185 (10 μg/g) or Ctkf6f2 (10 μg/g). The blood samples were collected within 10 mins by intracardiac puncture for PRP, and U46619 (0.125 μM) was added. Platelet aggregation was measured turbidimetrically using platelet aggregometer. Shown are representative of three independent experiments.
Furthermore, the platelet aggregation was evaluated on ex vivo mouse model. The mouse was i.v. administered with compound 5185 (10 μg/g) or Ctkf6f2 (10 μg/g), compared to the vehicle-treated control. The blood was collected and evaluated for its response to U46619 (0.125 μM) on the aggregometer (FIG. 10).

[3] = system: mice carotid artery; test: FeCl3-induced thrombus formation in mice carotid artery; type: in vivo; conditions: intravenous administration
Experimental: FIG. 14 The antithrombotic activity of nstpbp5185 in FeCl3-induced thrombi formation in mice carotid artery. (A) Mice were intravenously administered with Heparin (10 or 100 U kg^−1), Aspirin (40 or 80 μg g^−1), or different doses of nstpbp5185 (B). After 5 min, FeCl3 injury was induced by a filter paper saturated with ferric chloride solution (10%). After removal of the paper, carotid blood flow (ml min^−1) was monitored continuously until thromboembolism formation or for 60 min. (C) Mice were orally administered with different doses of Aspirin and nstpbp5185 (D). Both drugs were suspended in 1% CMC. Blood flow monitoring were recorded used analyzed Labchart software (AD instruments). Data are presented as the mean±SEM (n≧3). **P<0.01 and ***P<0.001 as compared with the vehicle control (DMSO).
Mice were intravenously or orally administered with different doses of nstpbp5185.

[4] = biological target: T1, Thromboxane synthase (Homo sapiens, UniProt P24557); test: Thromboxane synthase activity (Table III comparison); type: biochemical
T1 construct: MDS
T1 sequence (P24557 1-533): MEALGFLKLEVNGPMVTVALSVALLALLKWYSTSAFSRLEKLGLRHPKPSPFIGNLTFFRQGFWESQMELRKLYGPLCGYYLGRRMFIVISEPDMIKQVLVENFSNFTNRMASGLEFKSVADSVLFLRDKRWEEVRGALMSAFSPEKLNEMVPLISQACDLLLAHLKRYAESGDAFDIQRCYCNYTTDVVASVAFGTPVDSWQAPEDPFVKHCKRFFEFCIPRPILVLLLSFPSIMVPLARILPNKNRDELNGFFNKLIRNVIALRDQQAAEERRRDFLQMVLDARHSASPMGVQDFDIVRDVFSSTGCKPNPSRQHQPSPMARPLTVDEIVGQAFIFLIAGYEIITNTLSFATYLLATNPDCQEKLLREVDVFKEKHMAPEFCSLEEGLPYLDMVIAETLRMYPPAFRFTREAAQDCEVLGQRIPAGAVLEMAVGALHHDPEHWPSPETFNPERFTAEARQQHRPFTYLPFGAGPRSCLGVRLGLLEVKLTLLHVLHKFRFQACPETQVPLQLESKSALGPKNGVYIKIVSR
Experimental: These kinases or enzymatic assays were performed by MDS according to the standardized methods

| Structure (SMILES) | IC50 [1] | inhibition of platelet aggregation of PRP induced by U46619, ex vivo [2] | ED50 FeCl3-induced thrombus formation [3] | Thromboxane synthase ([4]; Table III arrows) | IC50 ([4]; read-out: Thromboxane synthase inhibition IC50) |
| --- | --- | --- | --- | --- | --- |
| Cc1ccc(-c2nc3ccc(F)cc3n2Cc2cccc(F)c2)o1 [Ctkf6f2, 6-fluoro-1-(3-fluorobenzyl)-2-(5-methyl-2-furyl)benzimidazole] | 3.27 ± 1.01 µM | superior inhibition | – | – | – |
| Cc1ccc(-c2nc3ccccc3n2Cc2ccccc2)o1 [Example 6, 1-Benzyl-2-(5-methyl-2-furyl)benzimidazole] | – | – | ≈ 2.6 μg g^−1 | ↓ | 10 µM |
